{"source": "patent US10770169B2", "about": "“Method of providing a treatment to a subject based on a dynamic pathway map” (THE REGENTS OF THE UNIVERSITY OF CALIFORNIA, priority 2010, dated 2020)", "key": {"[1]": {"system": "panel of 55 breast cancer cell lines", "assay": "Cell growth inhibition assay (Cell Titer Glo, 72 h, 9 doses; GI50, TGI, LC50)", "format": "cell-based, human", "conditions": "value is the negative log10 of mol/L"}, "[2]": {"system": "luminal, basal, claudin-low and ERBB2AMP breast cancer cell lines", "assay": "Associations of clinically relevant subtypes and response (non-parametric ANOVA or t-test on GI50 ranks)", "format": "cell-based, human", "method_in_brief": "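Significance was set at FDR p<0.20 after combining p-values across three test sets. Subtype–response associations came from rank-based non-parametric ANOVA or t-tests on GI50. For three-class comparisons, post-hoc tests of each group against the rest identified the most sensitive group, with FDR correction.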"}}}
{"compound": "CCNCCCCNCCCCNCCCCNCCCCNCC=CCNCCCCNCCCCNCCCCNCCCCNCC.Cl.Cl.Cl.Cl.Cl.Cl.Cl.Cl.Cl.Cl", "note": "(stereo in doubt) [CGC-11144]", "values": [{"measurement": "GI50", "setting": "[1]; 600MPE cell line, censored GI50 values", "result": 6.49}, {"measurement": "GI50", "setting": "[1]; AU565 cell line, censored GI50 values", "result": 6.31}, {"measurement": "GI50", "setting": "[1]; BT20 cell line, censored GI50 values", "result": 6.52}, {"measurement": "GI50", "setting": "[1]; BT474 cell line, censored GI50 values", "result": 6.02}, {"measurement": "GI50", "setting": "[1]; BT483 cell line, censored GI50 values", "result": 6.25}, {"measurement": "GI50", "setting": "[1]; BT549 cell line, censored GI50 values", "result": 6.65}, {"measurement": "GI50", "setting": "[1]; CAMA1 cell line, censored GI50 values", "result": 6.40}, {"measurement": "GI50", "setting": "[1]; HCC38 cell line, censored GI50 values", "result": 6.81}, {"measurement": "GI50", "setting": "[1]; HCC70 cell line, censored GI50 values", "result": 6.55}, {"measurement": "GI50", "setting": "[1]; HCC202 cell line, censored GI50 values", "result": 6.26}, {"measurement": "GI50", "setting": "[1]; HCC1143 cell line, censored GI50 values", "result": 6.88}, {"measurement": "GI50", "setting": "[1]; HCC1187 cell line, censored GI50 values", "result": 6.02}, {"measurement": "GI50", "setting": "[1]; HCC1395 cell line, censored GI50 values", "result": 6.20}, {"measurement": "GI50", "setting": "[1]; HCC1419 cell line, censored GI50 values", "result": 6.30}, {"measurement": "GI50", "setting": "[1]; HCC1428 cell line, censored GI50 values", "result": 6.33}, {"measurement": "GI50", "setting": "[1]; HCC1500 cell line, censored GI50 values", "result": 6.65}, {"measurement": "GI50", "setting": "[1]; HCC1806 cell line, censored GI50 values", "result": 6.71}, {"measurement": "GI50", "setting": "[1]; HCC1937 cell line, censored GI50 values", "result": 6.76}, {"measurement": "GI50", "setting": "[1]; HCC1954 cell line, censored GI50 values", "result": 6.56}, {"measurement": "GI50", "setting": "[1]; HCC2185 cell line, censored GI50 values", "result": 6.60}, {"measurement": "GI50", "setting": "[1]; HCC3153 cell line, censored GI50 values", "result": 6.72}, {"measurement": "GI50", "setting": "[1]; LY2 cell line, censored GI50 values", "result": 5.18}, {"measurement": "GI50", "setting": "[1]; MCF7 cell line, censored GI50 values", "result": 6.33}, {"measurement": "GI50", "setting": "[1]; MDAMB134VI cell line, censored GI50 values", "result": 6.38}, {"measurement": "GI50", "setting": "[1]; MDAMB157 cell line, censored GI50 values", "result": 6.96}, {"measurement": "GI50", "setting": "[1]; MDAMB175VII cell line, censored GI50 values", "result": 6.75}, {"measurement": "GI50", "setting": "[1]; MDAMB231 cell line, censored GI50 values", "result": 4.66}, {"measurement": "GI50", "setting": "[1]; MDAMB361 cell line, censored GI50 values", "result": 5.78}, {"measurement": "GI50", "setting": "[1]; MDAMB415 cell line, censored GI50 values", "result": 6.78}, {"measurement": "GI50", "setting": "[1]; MDAMB436 cell line, censored GI50 values", "result": 6.06}, {"measurement": "GI50", "setting": "[1]; MDAMB453 cell line, censored GI50 values", "result": 6.28}, {"measurement": "GI50", "setting": "[1]; MDAMB468 cell line, censored GI50 values", "result": 6.17}, {"measurement": "GI50", "setting": "[1]; SKBR3 cell line, censored GI50 values", "result": 5.30}, {"measurement": "GI50", "setting": "[1]; SUM149PT cell line, censored GI50 values", "result": 6.53}, {"measurement": "GI50", "setting": "[1]; SUM159PT cell line, censored GI50 values", "result": 6.60}, {"measurement": "GI50", "setting": "[1]; SUM185PE cell line, censored GI50 values", "result": 6.68}, {"measurement": "GI50", "setting": "[1]; SUM225CWN cell line, censored GI50 values", "result": 5.45}, {"measurement": "GI50", "setting": "[1]; SUM1315MO2 cell line, censored GI50 values", "result": 5.69}, {"measurement": "GI50", "setting": "[1]; cell line 600MPE", "result": 6.49}, {"measurement": "GI50", "setting": "[1]; cell line AU565", "result": 6.31}, {"measurement": "GI50", "setting": "[1]; cell line BT20", "result": 6.52}, {"measurement": "GI50", "setting": "[1]; cell line BT474", "result": 6.02}, {"measurement": "GI50", "setting": "[1]; cell line BT483", "result": 6.25}, {"measurement": "GI50", "setting": "[1]; cell line BT549", "result": 6.65}, {"measurement": "GI50", "setting": "[1]; cell line CAMA1", "result": 6.40}, {"measurement": "GI50", "setting": "[1]; cell line HCC38", "result": 6.81}, {"measurement": "GI50", "setting": "[1]; cell line HCC70", "result": 6.55}, {"measurement": "GI50", "setting": "[1]; cell line HCC202", "result": 6.26}, {"measurement": "GI50", "setting": "[1]; cell line HCC1143", "result": 6.88}, {"measurement": "GI50", "setting": "[1]; cell line HCC1187", "result": 6.02}, {"measurement": "GI50", "setting": "[1]; cell line HCC1395", "result": 6.20}, {"measurement": "GI50", "setting": "[1]; cell line HCC1419", "result": 6.30}, {"measurement": "GI50", "setting": "[1]; cell line HCC1428", "result": 6.33}, {"measurement": "GI50", "setting": "[1]; cell line HCC1500", "result": 6.65}, {"measurement": "GI50", "setting": "[1]; cell line HCC1806", "result": 6.71}, {"measurement": "GI50", "setting": "[1]; cell line HCC1937", "result": 6.76}, {"measurement": "GI50", "setting": "[1]; cell line HCC1954", "result": 6.56}, {"measurement": "GI50", "setting": "[1]; cell line HCC2185", "result": 6.60}, {"measurement": "GI50", "setting": "[1]; cell line HCC3153", "result": 6.72}, {"measurement": "GI50", "setting": "[1]; cell line LY2", "result": 5.18}, {"measurement": "GI50", "setting": "[1]; cell line MCF7", "result": 6.33}, {"measurement": "GI50", "setting": "[1]; cell line MDAMB134V", "result": 6.38}, {"measurement": "GI50", "setting": "[1]; cell line MDAMB157", "result": 6.96}, {"measurement": "GI50", "setting": "[1]; cell line MDAMB175V", "result": 6.75}, {"measurement": "GI50", "setting": "[1]; cell line MDAMB231", "result": 4.66}, {"measurement": "GI50", "setting": "[1]; cell line MDAMB361", "result": 5.78}, {"measurement": "GI50", "setting": "[1]; cell line MDAMB415", "result": 6.78}, {"measurement": "GI50", "setting": "[1]; cell line MDAMB436", "result": 6.06}, {"measurement": "GI50", "setting": "[1]; cell line MDAMB453", "result": 6.28}, {"measurement": "GI50", "setting": "[1]; cell line MDAMB468", "result": 6.17}, {"measurement": "GI50", "setting": "[1]; cell line SKBR3", "result": 5.30}, {"measurement": "GI50", "setting": "[1]; cell line SUM52PE", "result": 6.79}, {"measurement": "GI50", "setting": "[1]; cell line SUM149PT", "result": 6.53}, {"measurement": "GI50", "setting": "[1]; cell line SUM159PT", "result": 6.60}, {"measurement": "GI50", "setting": "[1]; cell line SUM185PE", "result": 6.68}, {"measurement": "GI50", "setting": "[1]; cell line SUM225CWN", "result": 5.45}, {"measurement": "GI50", "setting": "[1]; cell line SUM1315MO", "result": 5.69}, {"measurement": "GI50", "setting": "[1]; cell line T47D", "result": 6.96}, {"measurement": "GI50", "setting": "[1]; cell line UACC812", "result": 6.78}, {"measurement": "GI50", "setting": "[1]; cell line UACC893", "result": 6.60}, {"measurement": "GI50", "setting": "[1]; cell line ZR751", "result": 6.48}, {"measurement": "association of response with ERBB2 amplification", "setting": "[2]", "result": "negatively associated with ERBB2 amplification"}, {"measurement": "Subtype specificity", "setting": "[2]; Table 6, most sensitive subtype, FDR p<0.20", "result": "not ERBB2AMP"}]}
